Data as given in ChEMBL document CHEMBL1255272, “In vitro activity of AR-709 against Streptococcus pneumoniae” (2008).
In brackets after ≈: the same amount, converted by molar mass.

What was measured:
Format in all cases: functional
[1] = test system: Streptococcus pneumoniae; assay: Antibacterial activity against azithromycin resistant Streptococcus pneumoniae by microdilution method
[2] = test system: Streptococcus pneumoniae; assay: Antibacterial activity against cotrimoxazole susceptible Streptococcus pneumoniae by microdilution method
[3] = test system: Streptococcus pneumoniae; assay: Antibacterial activity against amoxicillin-clavulanic acid susceptible Streptococcus pneumoniae by microdilution method
[4] = test system: Streptococcus pneumoniae; assay: Antibacterial activity against Streptococcus pneumoniae ATCC 49619 by microdilution method
[5] = test system: Streptococcus pneumoniae; assay: Antibacterial activity against cotrimoxazole intermediate Streptococcus pneumoniae by microdilution method
[6] = test system: Streptococcus pneumoniae; assay: Antibacterial activity against penicillin resistant Streptococcus pneumoniae by microdilution method
[7] = test system: Streptococcus pneumoniae; assay: Antibacterial activity against azithromycin susceptible Streptococcus pneumoniae by microdilution method
[8] = test system: Streptococcus pneumoniae; assay: Antibacterial activity against penicillin intermediate Streptococcus pneumoniae by microdilution method
[9] = test system: Streptococcus pneumoniae; assay: Antibacterial activity against Streptococcus pneumoniae by microdilution method
[10] = test system: Streptococcus pneumoniae; assay: Antibacterial activity against multidrug resistant Streptococcus pneumoniae by microdilution method
[11] = test system: Streptococcus pneumoniae; assay: Antibacterial activity against cotrimoxazole resistant Streptococcus pneumoniae by microdilution method
[12] = test system: Streptococcus pneumoniae; assay: Antibacterial activity against penicillin susceptible Streptococcus pneumoniae by microdilution method
[13] = test system: Streptococcus pneumoniae; assay: Antibacterial activity against amoxicillin-clavulanic acid resistant Streptococcus pneumoniae by microdilution method
[14] = test system: Streptococcus pneumoniae; assay: Antibacterial activity against Streptococcus pneumoniae assessed as resistant isolates by microdilution method
[15] = test system: Streptococcus pneumoniae; assay: Antibacterial activity against Streptococcus pneumoniae assessed as susceptible isolates by microdilution method in presence of beta lactamase inhibitor clavulanic acid
[16] = test system: Streptococcus pneumoniae; assay: Antibacterial activity against Streptococcus pneumoniae assessed as susceptible isolates by microdilution method
[17] = test system: Streptococcus pneumoniae; assay: Antibacterial activity against Streptococcus pneumoniae by microdilution method in presence of beta lactamase inhibitor clavulanic acid
[18] = test system: Streptococcus pneumoniae; assay: Antibacterial activity against Streptococcus pneumoniae assessed as resistant isolates by microdilution method in presence of beta lactamase inhibitor clavulanic acid

In the case of `COc1cc(Cc2cnc(N)nc2N)c2cc(Cc3c(C(=O)N(C)C)[nH]c4ccc(Cl)cc34)oc2c1OC`, the MIC50 [1] is reported as 0.06 µg/mL (≈ 0.112 µM), the MIC90 [1] is reported as 0.25 µg/mL (≈ 0.467 µM) and the MIC50 [2] is reported as ≤ 0.015 µg/mL. For the same compound, the MIC90 [2] was 0.03 µg/mL (≈ 0.0561 µM), the MIC50 [3] was ≤ 0.015 µg/mL and the MIC90 [3] was 0.06 µg/mL. The MIC [4] was ≤ 0.015 µg/mL, the MIC50 [5] was ≤ 0.015 µg/mL and the MIC90 [5] was 0.06 µg/mL (≈ 0.112 µM). For the same compound, the MIC50 [6] was 0.06 µg/mL (≈ 0.112 µM), the MIC90 [6] was 0.25 µg/mL (≈ 0.467 µM) and the MIC50 [7] was ≤ 0.015 µg/mL. The MIC90 [7] was 0.12 µg/mL (≈ 0.224 µM), the MIC50 [8] was 0.03 µg/mL (≈ 0.0561 µM) and the MIC90 [8] was 0.12 µg/mL (≈ 0.224 µM). The MIC50 [9] was 0.03 µg/mL (≈ 0.0561 µM), the MIC90 [9] was 0.25 µg/mL (≈ 0.467 µM) and the MIC50 [10] was 0.12 µg/mL (≈ 0.224 µM). For the same compound, the MIC90 [10] was 0.25 µg/mL (≈ 0.467 µM), the MIC50 [11] was 0.12 µg/mL (≈ 0.224 µM) and the MIC90 [11] was 0.25 µg/mL (≈ 0.467 µM). The MIC50 [12] was ≤ 0.015 µg/mL, the MIC90 [12] was ≤ 0.015 µg/mL and the MIC50 [13] was 0.06 µg/mL. It also gave an MIC90 [13] of 0.25 µg/mL.
`CC1(C)S[C@@H]2[C@H](NC(=O)[C@H](N)c3ccc(O)cc3)C(=O)N2[C@H]1C(=O)O` [AMOXICILLIN] showed an Activity [14] of 39.7%, an Activity [15] of 55% and an Activity [16] of 55%. The MIC50 [17] was 0.25 µg/mL, the MIC90 [17] was 4 µg/mL and the MIC50 [9] was 0.25 µg/mL (≈ 0.684 µM). For the same compound, the MIC90 [9] was 4 µg/mL (≈ 10.9 µM) and the Activity [18] was 39.1%.
Compound `CC[C@H]1OC(=O)[C@H](C)[C@@H](O[C@H]2C[C@@](C)(OC)[C@@H](O)[C@H](C)O2)[C@H](C)[C@@H](O[C@@H]2O[C@H](C)C[C@H](N(C)C)[C@H]2O)[C@](C)(O)C[C@@H](C)CN(C)[C@H](C)[C@@H](O)[C@]1(C)O` [AZITHROMYCIN] has an Activity [14] of 37.7%, an Activity [16] of 62.3% and an MIC50 [9] of 0.12 µg/mL (≈ 0.16 µM). The MIC90 [9] was > 8 µg/mL.
In the case of `COc1c(N2CCNC(C)C2)c(F)cc2c(=O)c(C(=O)O)cn(C3CC3)c12` (stereo not given) [GATIFLOXACIN], the Activity [14] is reported as 0.7%, the Activity [16] is reported as 98.7% and the MIC50 [9] is reported as 0.25 µg/mL (≈ 0.666 µM). It also gave an MIC90 [9] of 0.25 µg/mL (≈ 0.666 µM).
For `CC1(C)S[C@@H]2[C@H](NC(=O)Cc3ccccc3)C(=O)N2[C@H]1C(=O)O` [PENICILLIN G], the Activity [14] was 38.4%, the Activity [16] was 41.7% and the MIC50 [9] was 0.25 µg/mL (≈ 0.748 µM). The MIC90 [9] was 2 µg/mL (≈ 5.98 µM).
`CC[C@H]1OC(=O)[C@H](C)C(=O)[C@H](C)[C@@H](O[C@@H]2O[C@H](C)C[C@H](N(C)C)[C@H]2O)[C@](C)(OC)C[C@@H](C)C(=O)[C@H](C)[C@H]2N(CCCCn3cnc(-c4cccnc4)c3)C(=O)O[C@]12C` [TELITHROMYCIN] gave an Activity [14] of 0.7%, an Activity [16] of 98% and an MIC90 [9] of 0.5 µg/mL (≈ 0.616 µM).
In the case of `COc1cc(Cc2cnc(N)nc2N)cc(OC)c1OC` [TRIMETHOPRIM], the MIC50 [9] is reported as 4 µg/mL (≈ 13.8 µM) and the MIC90 [9] is reported as > 32 µg/mL.
